{"source": "patent US20250230193A1", "about": "“CYCLIC COMPOUND HAVING SELECTIVE KRAS INHIBITORY EFFECT ON HRAS AND NRAS” (CHUGAI SEIYAKU KABUSHIKI KAISHA, priority 2022, published 2025)", "key": {"[1]": {"biological_target": "GDP-bound NRAS wild-type protein (Homo sapiens, UniProt P01111)", "sequence (P01111 whole entry)": "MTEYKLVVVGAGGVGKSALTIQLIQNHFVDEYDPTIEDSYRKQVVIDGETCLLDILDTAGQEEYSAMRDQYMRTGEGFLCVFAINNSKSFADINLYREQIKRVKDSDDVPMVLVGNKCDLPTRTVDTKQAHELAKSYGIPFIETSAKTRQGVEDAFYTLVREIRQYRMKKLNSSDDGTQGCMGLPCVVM", "test": "Binding to NRAS by surface plasmon resonance (SPR), Single Cycle Kinetics", "settings": "for NRAS/KRAS (ratio of KD value with respect to NRAS to KD value with respect to KRAS): GDP-bound NRAS wild-type vs GDP-bound KRAS wild-type"}, "[2]": {"biological_target": "GDP-bound HRAS wild-type protein (Homo sapiens, UniProt P01112)", "sequence (P01112 whole entry)": "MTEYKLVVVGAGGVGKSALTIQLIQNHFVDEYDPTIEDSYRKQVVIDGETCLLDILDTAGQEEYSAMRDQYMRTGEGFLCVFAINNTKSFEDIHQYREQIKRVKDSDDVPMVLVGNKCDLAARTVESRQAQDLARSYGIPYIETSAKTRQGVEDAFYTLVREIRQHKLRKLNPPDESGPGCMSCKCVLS", "test": "Binding to HRAS by surface plasmon resonance (SPR), Single Cycle Kinetics", "settings": "for HRAS/KRAS (ratio of KD value with respect to HRAS to KD value with respect to KRAS): GDP-bound HRAS wild-type vs GDP-bound KRAS wild-type"}, "[3]": {"settings": "SPR, GDP-bound wild-type proteins"}}}
{"smiles": "CCC[C@H]1C(=O)N[C@@H]([C@@H](C)CC)C(=O)N(C2CC2)CC(=O)N(C)[C@H]2C/C=C\\CCN(C2=O)[C@@H](CC2CCC(F)(F)CC2)C(=O)N(C)CC(=O)N[C@@H](CCc2ccc(Cl)c(Cl)c2)C(=O)N2C[C@H](OC(C)C)C[C@H]2C(=O)NC2(CC(C)(C)C2)C(=O)N(C)[C@@H](C2CCCC2)C(=O)N(C)[C@H](C(=O)N(C)C)CC(=O)N1C", "note": "[PP2521]", "values": [{"measurement": "NRAS/KRAS (ratio of KD value with respect to NRAS to KD value with respect to KRAS)", "setting": "[1]; SPR", "result": "A (a compound having 10 or more and less than 20 is denoted as A)"}, {"measurement": "HRAS/KRAS (ratio of KD value with respect to HRAS to KD value with respect to KRAS)", "setting": "[2]; SPR", "result": "A (a compound having 10 or more and less than 20 is denoted as A)"}]}
{"smiles": "C#CC[C@H]1C(=O)N[C@@H]([C@@H](C)CC)C(=O)N(C)CC(=O)N(C)[C@H]2C/C=C\\CCN(C2=O)[C@@H](Cc2ccc(C(F)(F)F)cc2)C(=O)N(C)CC(=O)N[C@@H](CCc2ccc(C(F)(F)F)c(OC)c2)C(=O)N2C[C@@H](C)C[C@H]2C(=O)NC2(CCC2)C(=O)N(C)[C@@H](C2CCCC2)C(=O)N(C)[C@H](C(=O)N(C)CC)CC(=O)N1C", "note": "[PP2061]", "values": [{"measurement": "NRAS/KRAS (ratio of KD value with respect to NRAS to KD value with respect to KRAS)", "setting": "[1]; SPR", "result": "AA (a compound having 20 or more is denoted as AA)"}, {"measurement": "HRAS/KRAS (ratio of KD value with respect to HRAS to KD value with respect to KRAS)", "setting": "[2]; SPR", "result": "A (a compound having 10 or more and less than 20 is denoted as A)"}]}
{"smiles": "CCC[C@H]1C(=O)N[C@@H]([C@@H](C)CC)C(=O)N(C)CC(=O)N(C)[C@H]2C/C=C\\CCN(C2=O)[C@@H](Cc2ccc(C(F)(F)F)cc2)C(=O)N(C)CC(=O)N[C@@H](CCc2ccc(C(F)(F)F)c(Cl)c2)C(=O)N2CC3(CC3)C[C@H]2C(=O)NC2(CC(C)(C)C2)C(=O)N(C)[C@@H](CC(C)C)C(=O)N(C)[C@H](C(=O)N(C)C)CC(=O)N1C", "note": "[PP2987]", "values": [{"measurement": "NRAS/KRAS (ratio of KD value with respect to GDP-bound NRAS wild-type protein to KD value with respect to KRAS)", "setting": "[1]; [3]", "result": "AA (a compound having 20 or more is denoted as AA)"}, {"measurement": "HRAS/KRAS (ratio of KD value with respect to GDP-bound HRAS wild-type protein to KD value with respect to KRAS)", "setting": "[2]; [3]", "result": "A (a compound having 10 or more and less than 20 is denoted as A)"}]}
{"smiles": "CCO[C@@H]1C[C@H]2C(=O)NC3(CC(C)(C)C3)C(=O)N(C)[C@@H](C(CC)CC)C(=O)N(C)[C@H](C(=O)N(C)C)CC(=O)N(C)[C@@H](CC(C)C)C(=O)N[C@@H]([C@@H](C)CC)C(=O)N(C)CC(=O)N(C)[C@H]3C/C=C\\CCN(C3=O)[C@@H](Cc3ccc(C)cc3)C(=O)N(C)CC(=O)N[C@@H](CCc3ccc(Cl)c(Cl)c3)C(=O)N2C1", "note": "[PP2185]", "values": [{"measurement": "NRAS/KRAS (ratio of KD value with respect to NRAS to KD value with respect to KRAS)", "setting": "[1]; SPR", "result": "AA (a compound having 20 or more is denoted as AA)"}, {"measurement": "HRAS/KRAS (ratio of KD value with respect to HRAS to KD value with respect to KRAS)", "setting": "[2]; SPR", "result": "A (a compound having 10 or more and less than 20 is denoted as A)"}]}
{"smiles": "CCCN1C(=O)CN(C)C(=O)CN(C)C(=O)[C@H]([C@@H](C)CC)NC(=O)[C@@H]2CCCCCOc3ccc(cc3)C[C@H]1C(=O)N(C)CC(=O)N[C@@H](CCc1cc(F)c(C(F)(F)F)c(F)c1)C(=O)N1C[C@H](OCC)C[C@H]1C(=O)NC1(CCCC1)C(=O)N(C)[C@@H](C1CCCC1)C(=O)N(C)[C@H](C(=O)N(C)C)CC(=O)N2C", "note": "[PP0895]", "values": [{"measurement": "NRAS/KRAS (ratio of KD value with respect to NRAS to KD value with respect to KRAS)", "setting": "[1]; KD ratio, SPR", "result": "C (A compound having a KD ratio of 0.1 or more and less than 3 is denoted as C)"}, {"measurement": "HRAS/KRAS (ratio of KD value with respect to HRAS to KD value with respect to KRAS)", "setting": "[2]; KD ratio, SPR", "result": "C (A compound having a KD ratio of 0.1 or more and less than 3 is denoted as C)"}]}
{"smiles": "CCO[C@@H]1C[C@H]2C(=O)NC3(CC(C)(C)C3)C(=O)N(C)[C@@H](C3CCCCC3)C(=O)N(C)[C@H](C(=O)N(C)C)CC(=O)N(C)[C@@H](COC)C(=O)N[C@@H]([C@@H](C)CC)C(=O)N(C3CC3)CC(=O)N(C)[C@H]3C/C=C\\CCN(C3=O)[C@@H](Cc3ccc(C(F)(F)F)cc3)C(=O)N(C)CC(=O)N[C@@H](CCc3cc(F)c(C(F)(F)F)c(F)c3)C(=O)N2C1", "note": "[PP2657]", "values": [{"measurement": "NRAS/KRAS (ratio of KD value with respect to GDP-bound NRAS wild-type protein to KD value with respect to KRAS)", "setting": "[1]; class symbols", "result": "A (a compound having 10 or more and less than 20 is denoted as A)"}, {"measurement": "HRAS/KRAS (ratio of KD value with respect to GDP-bound HRAS wild-type protein to KD value with respect to KRAS)", "setting": "[2]; class symbols", "result": "A (a compound having 10 or more and less than 20 is denoted as A)"}]}
{"smiles": "CCO[C@@H]1C[C@H]2C(=O)NC3(CCC3)C(=O)N(C)[C@@H](C3CCCC3)C(=O)N(C)[C@H](C(=O)N(C)C)CC(=O)N(C)[C@@H](CC)C(=O)N[C@@H]([C@@H](C)CC)C(=O)N(C)CC(=O)N(C)[C@H]3CCCCN(C3=O)[C@@H](Cc3ccc(C(F)(F)F)cc3)C(=O)N(C)CC(=O)N[C@@H](CCc3ccc4sccc4c3)C(=O)N2C1", "note": "[PP0887]", "values": [{"measurement": "NRAS/KRAS (ratio of KD value with respect to NRAS to KD value with respect to KRAS)", "setting": "[1]; KD ratio, SPR", "result": "C (A compound having a KD ratio of 0.1 or more and less than 3 is denoted as C)"}, {"measurement": "HRAS/KRAS (ratio of KD value with respect to HRAS to KD value with respect to KRAS)", "setting": "[2]; KD ratio, SPR", "result": "C (A compound having a KD ratio of 0.1 or more and less than 3 is denoted as C)"}]}
